{"source": "patent US20240366586A1", "about": "“METHODS AND AGENTS FOR MODULATING THE IMMUNE RESPONSE” (The Regents of the University of California, priority 2021, published 2024)", "key": {"Il12b [1]": {"system": "Il12b", "test": "Dual-fluorescence reporter macrophage cell line screen, lipopolysaccharide-stimulated: chromatinized Il12b-eGFP versus minimal Il12b-DsRed reporter", "assay_type": "cell-based", "details": "lipopolysaccharide-stimulated dual-fluorescence reporter macrophage cell line", "description": "We hypothesized that molecules that inhibit the “chromatinized” Il12b reporter but not the “minimal” Il12b reporter would offer a greater degree of Il12b inhibition selectivity.\nWe generated a dual-fluorescence reporter macrophage cell line having both a [Il12b]-[eGFP] chromatin-based construct and a [Il12b]-[DSred] plasmid vector. FIG. 3. We then stimulated an […] response in the cell line using lipopolysaccharide, an activator of Il12b expression, and tested a library of over 60,000 known and unknown (i.e., undescribed in the literature) small-molecule compounds.\nAdditional compounds in Formulas (I)-(IV) were screened following the same procedure as described above, with eGFP fluorescence as a readout for inhibition of IL12b."}, "vitiligo": {"system": "vitiligo", "test": "Treatment example: patient with vitiligo", "assay_type": "in vivo, human", "details": "topical formulation", "protocol": "A patient with vitiligo is treated with a topical formulation of 11-(5-hydroxy-2-nitrobenzyl)-7,11-diazatricyclo[7.3.1.0˜2,7˜]trideca-2,4-dien-6-one (Compound III-1)."}, "psoriasis": {"system": "psoriasis", "test": "Treatment example: patient with psoriasis", "assay_type": "in vivo, human", "details": "topical formulation", "protocol": "A patient with psoriasis is treated with a topical formulation of N-(2-furylmethyl)-N-[(6-methoxy-2-oxo-1H-quinolin-3-yl)methyl]-4-methyl-benzamide (Compound I-1)."}, "lichen planus": {"system": "lichen planus", "test": "Treatment example: patient with lichen planus", "assay_type": "in vivo, human", "details": "combination with crisaborole, both administered topically", "protocol": "A patient with lichen planus is treated with a combination of N-(2-furylmethyl)-N-[(6-methoxy-2-oxo-1H-quinolin-3-yl)methyl]-4-methyl-benzamide (Compound I-1) and crisaborole, both administered topically."}, "Il12b [2]": {"system": "Il12b", "test": "RNA-Seq / ATAC-Seq of lipopolysaccharide-induced genes in treated macrophages", "assay_type": "cell-based", "details": "for rank of Il12b among the most strongly inhibited lipopolysaccharide-induced genes: genes with RPKM>4 and FC>10, ranked by fold change (Max RPKM with/without compound)", "description": "Our screening experiment identified as compounds that […]. Using ATAC-Seq and RNA-Seq analyses, we confirmed that the screen indeed identified hits that work by affecting chromatin, and confirmed that β adrenergic agonists, (and in particular β2 adrenergic agonists) are indeed exquisitely selective inhibitors of Il12b gene expression.\n(§1) The inhibition of Il12b by β agonists occurs upon stimulation of macrophages with other inflammatory stimuli, including CpG DNA, double stranded RNA, and imiquimod. We confirmed that the cAMP/PKA pathway, but not the exchange factor directly activated by cAMP (EPAC) pathway, was largely responsible for mediating the Il12b suppression by 0-agonists.\nFIG. 7B depicts a fold change box plot in samples treated with UK17 (3-fluoro-N′-[(5-nitro-2-thienyl)methylene]benzohydrazide (CID #6895129)), classifying lipopolysaccharide-induced genes by gene-regulation cluster as previously described in Tong A. et al., A Stringent Systems Approach Uncovers Gene-Specific Mechanisms Regulating Inflammation, Cell 165 165-179 (2016). Box plots indicate the distribution of fold change values for each cluster. Red lines are drawn at 1 and −1, indicating a 2-fold up or down-regulation of genes. Il12b is labeled in red."}, "Il12b [3]": {"system": "Il12b", "test": "Il12b expression in human macrophages treated with PGE2 (RNA-Seq, RPKM vs DMSO)", "assay_type": "cell-based", "description": "as §1\nFIG. 10 depicts a heatmap of percent expression of RPKMs as a percent of the maximum RPKM within the DMSO sample for genes with RPKMs>3 and FC>10 in at least one DMSO timepoint. The heatmap represents that for the averaged samples for each gene between Donor 0 IL34 and Donor 0 MCSF. In the left heatmap, red indicates percent expression equal to or higher than 100%. DMSO and PGE2 samples are indicated as such for timepoints 0 hr, 1 hr, 2 hr, and 6 hr. […] Here, red represents a positive difference equal to or over 100%, indicating induction, and blue representing a negative difference equal to or less than −100%, indicating inhibition. (n=2).\nFIG. 11 depicts log 2 of the fold change of RPKMS after PGE2-treatment and those after DMSO treatment are shown in this scatter plot for genes with RPKMs>3 and FC>10 in at least on DMSO timepoint and this graph represents the 6-hour timepoint. […]"}, "chronic eczema": {"system": "chronic eczema", "test": "Treatment example: patient with chronic eczema", "assay_type": "in vivo, human", "details": "topical formulation"}, "[4]": {"system": "imiquimod-induced psoriasiform dermatitis", "test": "Imiquimod-induced psoriasiform dermatitis model, PASI clinical scoring", "assay_type": "in vivo", "details": "WT mice, topical imiquimod, daily intraperitoneal injection, vs saline/PBS", "description": "FIG. 16 depicts histology of WT mice or b1/b2 KO mice 5 days after topically applying imiquimod to their skin. Histology confirms greater thickening and scale of the skin in b1/b2 KO mice.\nFIG. 19 depicts WT mice given intraperitoneal injection of the b2 selective adrenergic agonist clenbuterol or vehicle control (saline) daily in mice given topical imiquimod to induce psoriasiform dermatitis.\nFIG. 20 depicts the PASI clinical scoring PBS-treated WT mice versus clenbuterol-treated WT mice."}, "Behçet's disease": {"system": "Behçet's disease", "test": "Treatment example: patient with Behçet's disease", "assay_type": "in vivo, human", "details": "topical formulation"}, "alopecia": {"system": "alopecia", "test": "Treatment example: patient with alopecia", "assay_type": "in vivo, human", "details": "topical formulation also comprising apremilast"}}, "data": [{"smiles": "O=c1cccc2n1CC1CC2CN(Cc2cc(O)ccc2[N+](=O)[O-])C1", "note": "(stereo not drawn) [III-1, 11-(5-hydroxy-2-nitrobenzyl)-7,11-diazatricyclo[7.3.1.0˜2,7˜]trideca-2,4-dien-6-one]", "values": [{"measurement": "selective inhibition of the chromatinized Il12b reporter (eGFP) but not the minimal reporter (DsRed)", "setting": "Il12b [1]", "result": "selective inhibitors of chromatinized Il12b"}, {"measurement": "clinical outcome", "setting": "vitiligo", "result": "Resolution of vitiligo"}]}, {"smiles": "COc1ccc2[nH]c(=O)c(CN(Cc3ccco3)C(=O)c3ccc(C)cc3)cc2c1", "note": "[Compound I-1, N-(2-furylmethyl)-N-[(6-methoxy-2-oxo-1H-quinolin-3-yl)methyl]-4-methyl-benzamide]", "values": [{"measurement": "clinical outcome", "setting": "psoriasis", "result": "Resolution of symptoms"}, {"measurement": "clinical outcome", "setting": "lichen planus", "result": "Resolution of symptoms"}]}, {"smiles": "CCCCC[C@H](O)/C=C/[C@H]1[C@H](O)CC(=O)[C@@H]1C/C=C\\CCCC(=O)O", "note": "[prostaglandin E2, reference compound]", "values": [{"measurement": "selective inhibition of Il12b gene expression", "setting": "Il12b [2]; RNA-Seq and ATAC-Seq analyses, macrophages", "result": "selectively inhibit IL12b expression"}, {"measurement": "selective inhibition of Il12b in human macrophages", "setting": "Il12b [3]", "result": "exquisitely selective inhibitor of Il12b"}]}, {"smiles": "O=C(NN=Cc1ccc([N+](=O)[O-])s1)c1cccc(F)c1", "note": "[II-1, 3-fluoro-N′-[(5-nitro-2-thienyl)methylene]benzohydrazide]", "values": [{"measurement": "selective inhibition of the chromatinized Il12b reporter (eGFP) but not the minimal reporter (DsRed)", "setting": "Il12b [1]", "result": "selective inhibitors of chromatinized Il12b"}, {"measurement": "selective inhibition of the chromatinized Il12b reporter (eGFP) but not the minimal reporter (DsRed)", "setting": "Il12b [1]; listed as UK17", "result": "selective for inhibition of chromatinized Il12b"}, {"measurement": "clinical outcome", "setting": "chronic eczema", "result": "Resolution of symptoms"}, {"measurement": "rank of Il12b among the most strongly inhibited lipopolysaccharide-induced genes", "setting": "Il12b [2]", "result": "≤ 20"}]}, {"smiles": "CC(C)(C)NCC(O)c1cc(Cl)c(N)c(Cl)c1", "note": "(stereo not drawn) [clenbuterol]", "values": [{"measurement": "PASI clinical score", "setting": "[4]", "result": "reduction in score"}]}, {"smiles": "COc1ccc(Br)cc1/C=C/C(=O)c1ccc(OC)c(OC)c1", "note": "[IV-1, 3-(5-bromo-2-methoxyphenyl)-1-(3,4-dimethoxyphenyl)-2-propen-1-one]", "values": [{"measurement": "selective inhibition of the chromatinized Il12b reporter (eGFP) but not the minimal reporter (DsRed)", "setting": "Il12b [1]", "result": "selective inhibitors of chromatinized Il12b"}, {"measurement": "clinical outcome", "setting": "Behçet's disease", "result": "Resolution of disease"}, {"measurement": "rank of Il12b among the most strongly inhibited lipopolysaccharide-induced genes", "setting": "Il12b [2]", "result": "≤ 20"}, {"measurement": "clinical outcome", "setting": "alopecia", "result": "Resolution of alopecia"}]}]}
